Experimental data: patent US20140094424A1, “MICROBICIDAL COMPOSITIONS AND METHODS OF PRODUCTION USE THEREOF” (priority 2011, published 2014)

Experiments:
Assay in all cases: MBC (minimum bactericidal concentration) test in Wash NEXT reagent
Type in all cases: cell-based
[1] = test system: Pseudomonas aeruginosa (AY)
[2] = test system: Pseudomonas aeruginosa (L)
[3] = test system: Pseudomonas putida (K)

Structure (SMILES): Cc1cc(NS(=O)(=O)c2ccc(N)cc2)no1 [Sulfamethoxazole, sulfamethoxazole]
- MBC test growth score ([1]; 10% preservative, 8 hour): +
- MBC test growth score ([1]; 10% preservative, 24 hour): +
- MBC test growth score ([1]; 10% preservative, 48 hour): +
- MBC test growth score ([1]; 10% preservative, 72 hour): +
- MBC test growth score ([1]; 20% preservative, 8 hour): +
- MBC test growth score ([1]; 20% preservative, 24 hour): +
- MBC test growth score ([1]; 20% preservative, 48 hour): +
- MBC test growth score ([1]; 20% preservative, 72 hour): +
- MBC test growth score ([1]; 30% preservative, 8 hour): +
- MBC test growth score ([1]; 30% preservative, 24 hour): +
- MBC test growth score ([1]; 30% preservative, 48 hour): +
- MBC test growth score ([1]; 30% preservative, 72 hour): +
- MBC test growth score ([1]; 40% preservative, 8 hour): +
- MBC test growth score ([1]; 40% preservative, 24 hour): +
- MBC test growth score ([1]; 40% preservative, 48 hour): +
- MBC test growth score ([1]; 40% preservative, 72 hour): +
- MBC test growth score ([1]; 50% preservative, 8 hour): +
- MBC test growth score ([1]; 50% preservative, 24 hour): +
- MBC test growth score ([1]; 50% preservative, 48 hour): +
- MBC test growth score ([1]; 50% preservative, 72 hour): +
- MBC test growth score ([1]; 60% preservative, 8 hour): +
- MBC test growth score ([1]; 60% preservative, 24 hour): +
- MBC test growth score ([1]; 60% preservative, 48 hour): +
- MBC test growth score ([1]; 60% preservative, 72 hour): +
- MBC test growth score ([1]; 70% preservative, 8 hour): +
- MBC test growth score ([1]; 70% preservative, 24 hour): +
- MBC test growth score ([1]; 70% preservative, 48 hour): +
- MBC test growth score ([1]; 70% preservative, 72 hour): +
- MBC test growth score ([1]; 80% preservative, 8 hour): +
- MBC test growth score ([1]; 80% preservative, 24 hour): +
- MBC test growth score ([1]; 80% preservative, 48 hour): +
- MBC test growth score ([1]; 80% preservative, 72 hour): +
- MBC test growth score ([1]; 90% preservative, 8 hour): +
- MBC test growth score ([1]; 90% preservative, 24 hour): +
- MBC test growth score ([1]; 90% preservative, 48 hour): +
- MBC test growth score ([1]; 90% preservative, 72 hour): +
- MBC test growth score ([1]; 100% preservative, 8 hour): +
- MBC test growth score ([1]; 100% preservative, 24 hour): +
- MBC test growth score ([1]; 100% preservative, 48 hour): +
- MBC test growth score ([1]; 100% preservative, 72 hour): +
- MBC test growth score ([2]; 10% preservative, 8 hour): +
- MBC test growth score ([2]; 10% preservative, 24 hour): +
- MBC test growth score ([2]; 10% preservative, 48 hour): +
- MBC test growth score ([2]; 10% preservative, 72 hour): +
- MBC test growth score ([2]; 20% preservative, 8 hour): +
- MBC test growth score ([2]; 20% preservative, 24 hour): +
- MBC test growth score ([2]; 20% preservative, 48 hour): +
- MBC test growth score ([2]; 20% preservative, 72 hour): +
- MBC test growth score ([2]; 30% preservative, 8 hour): +
- MBC test growth score ([2]; 30% preservative, 24 hour): +
- MBC test growth score ([2]; 30% preservative, 48 hour): +
- MBC test growth score ([2]; 30% preservative, 72 hour): +
- MBC test growth score ([2]; 40% preservative, 8 hour): +
- MBC test growth score ([2]; 40% preservative, 24 hour): +
- MBC test growth score ([2]; 40% preservative, 48 hour): +
- MBC test growth score ([2]; 40% preservative, 72 hour): +
- MBC test growth score ([2]; 50% preservative, 8 hour): +
- MBC test growth score ([2]; 50% preservative, 24 hour): +
- MBC test growth score ([2]; 50% preservative, 48 hour): +
- MBC test growth score ([2]; 50% preservative, 72 hour): +
- MBC test growth score ([2]; 60% preservative, 8 hour): +
- MBC test growth score ([2]; 60% preservative, 24 hour): +
- MBC test growth score ([2]; 60% preservative, 48 hour): +
- MBC test growth score ([2]; 60% preservative, 72 hour): +
- MBC test growth score ([2]; 70% preservative, 8 hour): +
- MBC test growth score ([2]; 70% preservative, 24 hour): +
- MBC test growth score ([2]; 70% preservative, 48 hour): +
- MBC test growth score ([2]; 70% preservative, 72 hour): +
- MBC test growth score ([2]; 80% preservative, 8 hour): +
- MBC test growth score ([2]; 80% preservative, 24 hour): +
- MBC test growth score ([2]; 80% preservative, 48 hour): +
- MBC test growth score ([2]; 80% preservative, 72 hour): +
- MBC test growth score ([2]; 90% preservative, 8 hour): +
- MBC test growth score ([2]; 90% preservative, 24 hour): +
- MBC test growth score ([2]; 90% preservative, 48 hour): +
- MBC test growth score ([2]; 90% preservative, 72 hour): +
- MBC test growth score ([2]; 100% preservative, 8 hour): +
- MBC test growth score ([2]; 100% preservative, 24 hour): +
- MBC test growth score ([2]; 100% preservative, 48 hour): +
- MBC test growth score ([2]; 100% preservative, 72 hour): +
- MBC test growth score ([3]; 10% preservative, 8 hour): +
- MBC test growth score ([3]; 10% preservative, 24 hour): 2
- MBC test growth score ([3]; 10% preservative, 48 hour): +/−
- MBC test growth score ([3]; 10% preservative, 72 hour): +/−
- MBC test growth score ([3]; 20% preservative, 8 hour): +
- MBC test growth score ([3]; 20% preservative, 24 hour): +/−
- MBC test growth score ([3]; 20% preservative, 48 hour): +/−
- MBC test growth score ([3]; 20% preservative, 72 hour): −
- MBC test growth score ([3]; 30% preservative, 8 hour): +
- MBC test growth score ([3]; 30% preservative, 24 hour): +/−
- MBC test growth score ([3]; 30% preservative, 48 hour): 22
- MBC test growth score ([3]; 30% preservative, 72 hour): −
- MBC test growth score ([3]; 40% preservative, 8 hour): +
- MBC test growth score ([3]; 40% preservative, 24 hour): +/−
- MBC test growth score ([3]; 40% preservative, 48 hour): 20
- MBC test growth score ([3]; 40% preservative, 72 hour): −
- MBC test growth score ([3]; 50% preservative, 8 hour): +
- MBC test growth score ([3]; 50% preservative, 24 hour): +/−
- MBC test growth score ([3]; 50% preservative, 72 hour): −
- MBC test growth score ([3]; 60% preservative, 8 hour): +
- MBC test growth score ([3]; 60% preservative, 24 hour): +/−
- MBC test growth score ([3]; 60% preservative, 48 hour): 18
- MBC test growth score ([3]; 60% preservative, 72 hour): −
- MBC test growth score ([3]; 70% preservative, 8 hour): +
- MBC test growth score ([3]; 70% preservative, 24 hour): +
- MBC test growth score ([3]; 70% preservative, 48 hour): −
- MBC test growth score ([3]; 70% preservative, 72 hour): −
- MBC test growth score ([3]; 80% preservative, 8 hour): +
- MBC test growth score ([3]; 80% preservative, 24 hour): +
- MBC test growth score ([3]; 80% preservative, 48 hour): −
- MBC test growth score ([3]; 80% preservative, 72 hour): −
- MBC test growth score ([3]; 90% preservative, 8 hour): +
- MBC test growth score ([3]; 90% preservative, 24 hour): +
- MBC test growth score ([3]; 90% preservative, 48 hour): −
- MBC test growth score ([3]; 90% preservative, 72 hour): −
- MBC test growth score ([3]; 100% preservative, 8 hour): +
- MBC test growth score ([3]; 100% preservative, 24 hour): +
- MBC test growth score ([3]; 100% preservative, 48 hour): −
- MBC test growth score ([3]; 100% preservative, 72 hour): −
